Reference: patent publication US8575376B2, “Steroide anionic compounds, method of their production, usage and pharmaceutical preparation involving them” (Ustav Organicke Chemie A Biochemie Akademie Ved Ceske …, priority 2009, dated 2013)

Assays:
Long-Evans rats = assay: AAPA task after bilateral NMDA excitotoxic lesion of the hippocampus; assay type: in vivo, rat
Experimental: Neuroprotective action of 3α-substituted derivatives of pregnanolone was tested in the well-established model represented by excitotoxic bilateral lesion of the hippocampus with NMDA, an agonist of NMDA receptors. This model represents a widely-accepted paradigm of excitotoxicity induced experimental disruption of memory functions in laboratory rodents. The model also mimics into some extent the excessive action of glutamate on cells in the hippocampus, which contains abundance of NMDA receptors. The effect of lesions and possible neuroprotective action can be observed at various intervals after treatment both on the histological and behavioral level, provided that a suitable hippocampus-dependent memory task is available. In our studies, we have used a hippocampus-dependent spatial task AAPA (see above), which requires spatial and executive abilities and involves so-called “cognitive coordination” (Wesierska et al., 2005). Again, all manipulations with animals conformed to current legislation and Institutional recommendations on animal care and were approved by ethical-care committee.
In this phase of experiment, we have studied the effect of compound from Example 9 (and relation of this effect to dose) on NMDA excitotoxic hippocampal lesion after various intervals from lesioning. 150 adult male Long-Evans rats (250-350 g) were used in the study. Rats were housed in transparent plastic cages (25×25×40 cm) in air-conditioned animal room with 12/12 h dark/light rhythmicity. All rats had free access to food and water throughout the study.
During surgery, animals were deeply anesthetized by isoflurane inhalation anesthesia (3.5%, driven by air). Initial sedation was pursued in initiation chamber filled with diethyl ether vapor. During whole anesthesia, vital functions of animals were precisely monitored by the person pursuing surgery. After fixation in the stereotaxic apparatus (Kopf Instruments) the skull was exposed and small trephine openings were drilled with micro driller and subsequently, 1 ul of NMDA solution ([…] NMDA in saline buffered with calcium dihydrogenphosphate to pH=7.2) was microinjected into both dorsal hippocampi. The stereotaxic coordinates (AP=4; L=±2.5; DV=4) were measured from a rigorous atlas (Paxinos and Watson, 2005) and later verified from histological examination. Rats were then placed into soft post-surgery boxes. […] Doses of compound from Example 9 were: 0.01 mg/kg, 0.1 mg/kg and 10 mg/kg of b.w. In control groups and lesion-only groups, we applied only saline and NMDA, respectively. Solution of compound from Example 9 (0.01 mg/2 ml, 0.1 mg/2 ml or 10 mg/2 ml dissolved in cyclodextrin) was applied s.c. at a volume of 2 ml/kg.
Prior to behavioral observations, animals were left for 7 days to recover after surgery. After this recovery period, two days (each consisting of two sessions) of AAPA training were conducted. Each rat was initially placed onto rotating (1 rpm) circular arena containing a to-be-avoided sector (60°), fixed in the coordinate frame of the room (Stuchlik et al., 2008). Upon entrance into the prohibited sector, rat was punished by a mild electric footshock (˜0.3 mA] delivered from low-impedance subcutaneous wire to contact between rats paws and grounded floor (with highest voltage drop in rats feet). Rats wore a latex harness on their backs, holding an infrared light-emitting diode (LED), which was sampled by TV camera mounted above the arena and connected to a computer digitizing system (iTrack, Biosignal Group, USA). The shock sector is not directly perceptible for animals and its location can be determined solely by its relationships with distal room landmarks. […] The task is highly dependent upon hippocampus, with unilateral inactivation of this structure leading to avoidance deficit (Cimadevilla et al., 2001). This was the reason why we have selected this task for NMDA-induced impairment and detection of putative neuroprotective action of our compound (Example 9). […]

Wistar rats = assay: Spontaneous EEG and epileptic afterdischarges in awake rats; assay type: in vivo, rat
Excerpt: To assess the influence of the compound from example 9 on spontaneous EEG, evoked potentials and epileptic afterdischarges, recording electrodes were implanted into the epidural spaces of the adult Wistar rats. Rats were anaesthetized with isoflurane (1.5-2%) and 4 silver wire bare electrodes were inserted epidurally over sensorimotor cortex. Reference and ground electrodes were placed above cerebellum. The whole montage was fixed to the skull with dental acrylic.
After recovery period (1 week), animals were placed into the plastic boxes and connected to the Video EEG monitoring (VisionBrain/). After 1 hour of background recording the compound from example 9 was administered at the dose of 0.01 mg/kg and EEG was recorded for next 24 hours. Analysis of EEG was performed in a custom-based MATLAB script. Power of the EEG signal was calculated from FFT in frequency band 1.5-45 Hz. Length and duration of spike and wave afterdischarges (SPW) was measured from EEG to assess effect of compound from example 9 (0.01 mg/kg and 10 mg/kg) on epileptiform activity.

[1] = 10 mg/kg s.c., 30 min prior to and after lesion, or 120 min after lesion

CC(=O)[C@H]1CC[C@H]2[C@@H]3CC[C@@H]4C[C@H](OC(=O)[C@@H](N)CCC(=O)O)CC[C@]4(C)[C@H]3CC[C@]12C [Example 9, 20-Oxo-5β-pregnan-3α-yl L-glutamyl 1-ester]
number of entrances in AAPA after NMDA lesion (Long-Evans rats; 0.01 mg/kg s.c., 30 min after lesion): improved the subsequent performance in the AAPA task | maximum time avoided in AAPA after NMDA lesion (Long-Evans rats; 0.01 mg/kg s.c., 30 min after lesion, or 30 min prior to and after lesion): had beneficial effect in lesioned animals | number of entrances in AAPA after NMDA lesion (Long-Evans rats; 0.01 mg/kg s.c., 30 min prior to and after lesion): the alleviation was not significant | number of entrances in AAPA after NMDA lesion (Long-Evans rats; 0.01 mg/kg s.c., longer intervals from the lesion): exerted no effect after longer intervals from the lesion | maximum time avoided in AAPA after NMDA lesion (Long-Evans rats; 0.1 mg/kg s.c.): tended to alleviate the performance of rats compared to lesioned animals without treatment | number of entrances in AAPA after NMDA lesion (Long-Evans rats; 0.1 mg/kg s.c., 30 min after lesion): non-significantly improved the behavioral performance | maximum time avoided in AAPA after NMDA lesion (Long-Evans rats; [1]): caused a significant improvement of rat performance | number of entrances in AAPA after NMDA lesion (Long-Evans rats; [1]): significant protective effect against hippocampal lesion | number of entrances in AAPA after NMDA lesion (Long-Evans rats; 10 mg/kg s.c., other delays): No improvement was seen at other delays | spontaneous EEG power (Wistar rats; 60 min and 180 min after application): changes the EEG power at the shorter interval | duration and number of spike-wave afterdischarges (Wistar rats; higher dose (10 mg/kg)): tended to increase these parameter | duration and number of spike-wave afterdischarges (Wistar rats; low dose (0.01 mg/kg)): tended to slightly decrease both duration and number of spike-wave episodes
